This passage reports Ki and ED300 results from US4481194A, “Des-proline-des-glycine vasopressin antagonists” (SmithKline Beckman Corporation, priority 1984, dated 1984).

Numbered stars: 1 amine (or outer) side, 2 acyl side, 3 side chain; on linkers, the order of the positions; unused ones are H or OH. Bridge positions count the residues as written; N and C are the ends. Square brackets hold non-standard residues; d marks the D form. Peptide text beside a SMILES is read from it. X1 = O=C(CC1(S[*:2])CCCCC1)[*:1]; Abu = CC[C@H](N)C(=O)O

Assay [1] has as its target T1, vasopressin stimulated adenylate cyclase (Sus scrofa, UniProt P32307).
T1 construct: in the medullary tissue of hog or human kidneys; from tissue; host or cells: kidney medullary membranes (hog or human)
Description: Vasopressin stimulated adenylate cyclase activity in kidney medullary membrane. Type of assay: biochemical. Particulars: In Vitro (Pig); antagonism of vasopressin stimulated adenylate cyclase, medullary tissue.
Description: In the test procedure for assay of adenylate cyclase activity, the amount of ^32 P/cAMP formed in the absence of medullary membrane is determined (blank). The blank value is subtracted from all experimental data. The compound is tested for its effect on basal adenylate cyclase activity and/or on vasopressin stimulated activity. Each determination is carried out in triplicate. The Ka value is derived from a Lineweaver-Burkeplot. Rel. Vmax =(Vmax drug/Vmax vasopressin)×100. Ki =I/[Ka'/Ka)-1] where I is the concentration of the antagonist, and Ka' and Ka are the concentrations of vasopressin required to give half maximal activity of adenylate cyclase in the presence and absence of antagonist, respectively.

Assay [2] deals with T2, vasopressin receptors [V2 -receptors] (Sus scrofa, UniProt P32307).
T2 construct: average KD value determined on 3 preparations of hog kidney membranes; from tissue; host or cells: hog kidney medullary membranes
T2 sequence (P32307 whole entry): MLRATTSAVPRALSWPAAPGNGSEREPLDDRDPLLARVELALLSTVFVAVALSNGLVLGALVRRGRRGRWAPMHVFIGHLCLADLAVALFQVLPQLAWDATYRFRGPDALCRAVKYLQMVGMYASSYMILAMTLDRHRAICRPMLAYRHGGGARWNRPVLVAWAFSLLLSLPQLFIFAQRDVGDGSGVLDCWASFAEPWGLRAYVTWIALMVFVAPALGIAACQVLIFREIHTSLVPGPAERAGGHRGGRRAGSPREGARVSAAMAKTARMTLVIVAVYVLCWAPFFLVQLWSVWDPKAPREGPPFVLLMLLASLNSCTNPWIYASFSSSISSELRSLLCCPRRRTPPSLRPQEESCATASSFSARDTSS
Description: 3H-vasopressin binding assay, hog kidney membranes. Particulars: In Vitro (Pig); competitive inhibition of 3H-vasopressin binding; read-out: BB.
Description: In the test procedure for binding assays, the amount of ^3 H-vasopressin bound in the absence and in the presence of an excess of vasopressin (7.5×10^-6 M) is measured in triplicate. These values represent total and non-specific binding, respectively.

A further assay deals with hydropenic rat. The assay is described as follows: Hydropenic rat screen (anti-ADH activity in vivo). Particulars: estimated dose of peptide delivered ip which reduces Uosm from hydropenic levels to 300 mOsmoles/kg H2O. The procedure: Antagonistic activity toward the natural antidiuretic hormone (anti-ADH activity) is determined, in vitro, in the medullary tissue of hog or human kidneys and, in vivo, in the hydropenic rat. The in vitro assay procedures for vasopressin stimulated adenylate cyclase activation or vasopression binding activity are described by F. Stassen et al., J. Pharmacology and Experimental Therapeutics, 223, 50-54 (1982).
The assay for anti-ADH activity is the hydropenic rat protocol is described below:
Food and water are removed from male rats approximately 18 hours prior to testing. Animals are housed 4 per metabolism cage. At 0 hour, the test compound is administered intraperitoneally to the test group and an equivalent volume of vehicle is administered to both control groups (fasted and non-fasted). Urine volume and osmolality are measured every hour for 4 hours. Test values are recorded as ml of urine excreted (cumulative), mEq/rat electrolyte excreted, mg/rat urea excreted, and osmolality in milli-Osmoles/kg H2 O. A tolerance test is used to determine significance. ED300 is defined as the dose of compound (μg/kg) required to lower urine osmolality to 300 m-Osmoles/kg.

T1 sequence (P32307 whole entry): as above

In the case of `CCOc1ccc(C[C@H]2NC(=O)CC3(CCCCC3)SSC[C@@H](C(=O)N[C@@H](CCCNC(=N)N)C(N)=O)NC(=O)[C@H](CC(N)=O)NC(=O)[C@H](C(C)C)NC(=O)[C@H](Cc3ccccc3)NC2=O)cc1` [A] ([dY](Et)FVNCR-NH2; linker N-5 via X1), the Ki in assay [1] is 2.5 nM; in assay [2] it was 9000 nM.

`CCOc1ccc(C[C@H]2NC(=O)CC3(CCCCC3)SSC[C@@H](C(=O)N[C@@H](CCCNC(=N)N)C(N)=O)NC(=O)[C@H](CC(N)=O)NC(=O)[C@H](CC)NC(=O)[C@H](Cc3ccccc3)NC2=O)cc1` [B, 1(mercapto-β,cyclopentamethylenepropionic acid)2-(O--ethylD-tyrosine)-4-aminobutyric acid7-desproline-8-arginine-9-desglycinevasopressin] ([dY](Et)F[Abu]NCR-NH2; linker N-5 via X1): in the assay on hydropenic rat, the ED300 was 0.1218 mg/kg. Also, the Ki in assay [1] was determined as 6.2 nM.

Turning to `CCOc1ccc(C[C@H]2NC(=O)CC3(CCCCC3)SSC[C@@H](C(=O)N3CCC[C@H]3C(=O)N[C@@H](CCCNC(=N)N)C(=O)NCC(N)=O)NC(=O)[C@H](CC(N)=O)NC(=O)[C@H](C(C)C)NC(=O)[C@H](Cc3ccccc3)NC2=O)cc1` [C, [mercapto-β,cyclopentamethylenepropionic acid)2-(O--ethylD-tyrosine)-4-valine-8-argininevasopressin, reference compound] ([dY](Et)FVNCPRG-NH2; linker N-5 via X1 (inferred); C-terminus assumed), the ED300 in the assay with hydropenic rat was 0.011 mg/kg. The molecule also came in with a Ki in assay [1] of 9.8 nM.
